Measured values reported in patent US9695155B2, “Herbicidal substituted pyrimidinyloxy benzene compounds” (E. I. DU PONT DE NEMOURS AND COMPANY, priority 2013, dated 2017).

Tests used:
bluegrass = test: Test D preemergence; type: in vivo, Poa annua; settings: Poa annua, pre-emergence
Method in brief: (§1)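 Seeds sown in silt loam soil got preemergence sprays; plants in peat/vermiculite potting medium were sprayed postemergence at 2–18 cm (1- to 4-leaf stage). Chemicals were formulated in a non-phytotoxic solvent mixture with surfactant. After 7 to 21 days in a controlled environment, injury was rated visually versus controls, 0 (no effect) to 100 (complete control).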

lambsquarters = test: Test D preemergence; type: in vivo, Chenopodium album; settings: Chenopodium album, pre-emergence
Method in brief: as §1

oilseed rape [1] = test: Test D preemergence; type: in vivo, Brassica napus; settings: Brassica napus, pre-emergence
Method in brief: as §1

speedwell [2] = test: Test D preemergence; type: in vivo, Veronica persica; settings: Veronica persica, pre-emergence
Method in brief: as §1

spring wheat = test: Test D preemergence; type: in vivo, Triticum aestivum; settings: Triticum aestivum, pre-emergence
Method in brief: as §1

winter wheat = test: Test D preemergence; type: in vivo, Triticum aestivum; settings: Triticum aestivum, pre-emergence
Method in brief: as §1

Italian ryegrass = test: Test D postemergence; type: in vivo, Lolium multiflorum; settings: Lolium multiflorum, post-emergence
Method in brief: as §1

oilseed rape [3] = test: Test D postemergence; type: in vivo, Brassica napus; settings: Brassica napus, post-emergence
Method in brief: as §1

speedwell [4] = test: Test D postemergence; type: in vivo, Veronica persica; settings: Veronica persica, post-emergence
Method in brief: as §1

wild oat = test: Test D postemergence; type: in vivo, Avena fatua; settings: Avena fatua, post-emergence
Method in brief: as §1

wild radish = test: Test D postemergence; type: in vivo, Raphanus raphanistrum; settings: Raphanus raphanistrum, post-emergence
Method in brief: as §1

Compound `FC(F)(F)COc1cnn(-c2ccccc2Oc2ncc(Cl)cn2)c1` [Compound 138, 5-chloro-2-[2-[4-(2,2,2-trifluoroethoxy)-1H-pyrazol-1-yl]phenoxy]pyrimidine] has a pest or weed control at 16 g/ha (bluegrass; 16 g ai/ha, scale 0 (no effect) to 100 (complete control), read-out: Plant response rating, Bluegrass) of 0%, a pest or weed control at 31 g/ha (bluegrass; 31 g ai/ha, scale 0-100, read-out: Plant response rating, Bluegrass) of 0% and a pest or weed control at 62 g/ha (bluegrass; 62 g ai/ha, scale 0-100, read-out: Plant response rating, Bluegrass) of 0%. The pest or weed control at 125 g/ha (bluegrass; 125 g ai/ha, scale 0-100, read-out: Plant response rating, Bluegrass) was 10%, the pest or weed control at 16 g/ha (lambsquarters; 16 g ai/ha, scale 0 (no effect) to 100 (complete control), read-out: Plant response rating, Lambsquarters) was 45% and the pest or weed control at 31 g/ha (lambsquarters; 31 g ai/ha, scale 0-100, read-out: Plant response rating, Lambsquarters) was 10%. It also gave a pest or weed control at 62 g/ha (lambsquarters; 62 g ai/ha, scale 0-100, read-out: Plant response rating, Lambsquarters) of 60%, a pest or weed control at 125 g/ha (lambsquarters; 125 g ai/ha, scale 0-100, read-out: Plant response rating, Lambsquarters) of 100% and a plant injury at 16 g/ha (oilseed rape [1]; 16 g ai/ha, scale 0 (no effect) to 100 (complete control), read-out: Plant response rating, Oilseed Rape) of 35%. For the same compound, the plant injury at 31 g/ha (oilseed rape [1]; 31 g ai/ha, scale 0-100, read-out: Plant response rating, Oilseed Rape) was 30%, the plant injury at 62 g/ha (oilseed rape [1]; 62 g ai/ha, scale 0-100, read-out: Plant response rating, Oilseed Rape) was 50% and the plant injury at 125 g/ha (oilseed rape [1]; 125 g ai/ha, scale 0-100, read-out: Plant response rating, Oilseed Rape) was 65%. The pest or weed control at 16 g/ha (speedwell [2]; 16 g ai/ha, scale 0 (no effect) to 100 (complete control), read-out: Plant response rating, Speedwell) was 70%, the pest or weed control at 31 g/ha (speedwell [2]; 31 g ai/ha, scale 0 (no effect) to 100 (complete control), read-out: Plant response rating, Speedwell) was 100% and the pest or weed control at 62 g/ha (speedwell [2]; 62 g ai/ha, scale 0-100, read-out: Plant response rating, Speedwell) was 100%. It also gave a pest or weed control at 125 g/ha (speedwell [2]; 125 g ai/ha, scale 0-100, read-out: Plant response rating, Speedwell) of 100%, a plant injury at 16 g/ha (spring wheat; 16 g ai/ha, scale 0 (no effect) to 100 (complete control), read-out: Plant response rating, Wheat, Spring) of 0% and a plant injury at 31 g/ha (spring wheat; 31 g ai/ha, scale 0 (no effect) to 100 (complete control), read-out: Plant response rating, Wheat, Spring) of 10%. The plant injury at 62 g/ha (spring wheat; 62 g ai/ha, scale 0-100, read-out: Plant response rating, Wheat, Spring) was 15%, the plant injury at 125 g/ha (spring wheat; 125 g ai/ha, scale 0-100, read-out: Plant response rating, Wheat, Spring) was 15% and the plant injury at 16 g/ha (winter wheat; 16 g ai/ha, scale 0 (no effect) to 100 (complete control), read-out: Plant response rating, Wheat, Winter) was 0%. For the same compound, the plant injury at 31 g/ha (winter wheat; 31 g ai/ha, scale 0 (no effect) to 100 (complete control), read-out: Plant response rating, Wheat, Winter) was 5%, the plant injury at 62 g/ha (winter wheat; 62 g ai/ha, scale 0-100, read-out: Plant response rating, Wheat, Winter) was 5% and the plant injury at 125 g/ha (winter wheat; 125 g ai/ha, scale 0-100, read-out: Plant response rating, Wheat, Winter) was 5%. For the same compound, the pest or weed control at 16 g/ha (Italian ryegrass; 16 g ai/ha, scale 0-100, read-out: Plant response rating, Ryegrass, Italian) was 5%, the pest or weed control at 31 g/ha (Italian ryegrass; 31 g ai/ha, scale 0 to 100 (0 no effect, 100 complete control), read-out: Plant response rating, Ryegrass, Italian) was 0% and the pest or weed control at 62 g/ha (Italian ryegrass; 62 g ai/ha, scale 0 to 100 (0 no effect, 100 complete control), read-out: Plant response rating, Ryegrass, Italian) was 0%. The pest or weed control at 125 g/ha (Italian ryegrass; 125 g ai/ha, scale 0 to 100 (0 no effect, 100 complete control), read-out: Plant response rating, Ryegrass, Italian) was 5%, the plant injury at 16 g/ha (oilseed rape [3]; 16 g ai/ha, scale 0-100, read-out: Plant response rating, Oilseed Rape) was 70% and the plant injury at 31 g/ha (oilseed rape [3]; 31 g ai/ha, scale 0 to 100 (0 no effect, 100 complete control), read-out: Plant response rating, Oilseed Rape) was 70%. It also gave a plant injury at 62 g/ha (oilseed rape [3]; 62 g ai/ha, scale 0 to 100 (0 no effect, 100 complete control), read-out: Plant response rating, Oilseed Rape) of 75%, a plant injury at 125 g/ha (oilseed rape [3]; 125 g ai/ha, scale 0 to 100 (0 no effect, 100 complete control), read-out: Plant response rating, Oilseed Rape) of 75% and a pest or weed control at 16 g/ha (speedwell [4]; 16 g ai/ha, scale 0-100, read-out: Plant response rating, Speedwell) of 70%. The pest or weed control at 31 g/ha (speedwell [4]; 31 g ai/ha, scale 0 to 100 (0 no effect, 100 complete control), read-out: Plant response rating, Speedwell) was 70%, the pest or weed control at 62 g/ha (speedwell [4]; 62 g ai/ha, scale 0 to 100 (0 no effect, 100 complete control), read-out: Plant response rating, Speedwell) was 75% and the pest or weed control at 125 g/ha (speedwell [4]; 125 g ai/ha, scale 0 to 100 (0 no effect, 100 complete control), read-out: Plant response rating, Speedwell) was 75%. It also gave a pest or weed control at 16 g/ha (wild oat; 16 g ai/ha, scale 0-100, read-out: Plant response rating, Oat, Wild) of 5%, a pest or weed control at 31 g/ha (wild oat; 31 g ai/ha, scale 0 to 100 (0 no effect, 100 complete control), read-out: Plant response rating, Oat, Wild) of 0% and a pest or weed control at 62 g/ha (wild oat; 62 g ai/ha, scale 0 to 100 (0 no effect, 100 complete control), read-out: Plant response rating, Oat, Wild) of 5%. For the same compound, the pest or weed control at 125 g/ha (wild oat; 125 g ai/ha, scale 0 to 100 (0 no effect, 100 complete control), read-out: Plant response rating, Oat, Wild) was 10%, the pest or weed control at 16 g/ha (wild radish; 16 g ai/ha, scale 0-100, read-out: Plant response rating, Radish, Wild) was 60% and the pest or weed control at 31 g/ha (wild radish; 31 g ai/ha, scale 0 to 100 (0 no effect, 100 complete control), read-out: Plant response rating, Radish, Wild) was 65%. It also gave a pest or weed control at 62 g/ha (wild radish; 62 g ai/ha, scale 0 to 100 (0 no effect, 100 complete control), read-out: Plant response rating, Radish, Wild) of 80% and a pest or weed control at 125 g/ha (wild radish; 125 g ai/ha, scale 0 to 100 (0 no effect, 100 complete control), read-out: Plant response rating, Radish, Wild) of 90%.
